Experiments:
Type in all cases: cell-based, human
[1] = tested on: ACTHep1-6; test: Reversal of transformation of ACTHep1-6 by ponasterone A induced dominant negative RAS; conditions: 10 μM ponasterone A in Med3, 5% serum, 10,000 cells per well
Excerpt: Identification of a human hepatocyte cell line starting from human EG cells using sequential expression of an activated and a dominant negative transforming gene can be performed as follows. Human EG cells can be transfected with a construct containing the human hepatitis B virus core promoter/enhancer (SEQ ID NO:1) driving an activated H-RAS gene (SEQ ID NO:2) and also optionally containing an ecdysone inducible gene switch promoter (SEQ ID NO:3) driving a dominant negative H-RAS gene (SEQ ID NO:4) (Sandig et al., (1996) Gene Therapy 3, 1002-1009; Saez et al., (2000) Proc. Natl. Acad. Sci. 97, 14512-14517). The activated H-RAS can be transcribed after differentiation of the EG cells. Transformed hepatocytes can be isolated in soft agar, cloned, expanded and frozen. Cultures can be plated at low density then treated with ponasterone A to induce the dominant negative RAS and reverse transformation. Cells are expected to arrest growth at subconfluent densities. Their identity as hepatocytes can be confirmed by production of albumin, cyp1A and cyp3A.
ACTHep1-6 can be further characterized. Individual vials can be thawed and plated in Med3, 5% serum as described above. Cells can be expanded, then plated at a density of 10,000 cells per well in a 96 well plate. […] Cells are selected having the cuboidal appearance of hepatocytes with a prominent nucleus. […]

[2] = tested on: Hay1; test: Zeocin sensitivity of Hay1 (standard titration curve, selection)
Experimental: In preparation for the establishment of the frt insert line, the sensitivity of Hay1 to zeocin was tested.
The plasmid pFrt/lac/Zeo (Invitrogen) can be transfected into Hay1 using Lipofectamine 2000. After 48 hrs, resistant cells can be selected by changing to medium containing 75 μg/ml Zeocin (Invitrogen). Non-resistant cells are dead in about seven days. An efficiency of about 1×10^−5/μg is expected. Approximately ten individual transfectants can be selected and tested for expression of lacZ. Copy number of the plasmid can be evaluated via Southern blotting. Transfectants with single insertions can be chosen for further analysis. To examine the behavior of the insert during differentiation, cells can be subjected to EB formation, followed by culture in Med3, 5% defined calf serum for one week. They can be reevaluated for lacZ expression. Since Zeo selection can be maintained, it is expected that all surviving cells will retain lacZ expression. It is a general strategy to maintain selective pressure on the inserts to insure expression of the surrounding DNA, as has been successfully employed in a number of other studies (Zweigerdt et al., (2001) Cytotherapy 5, 399-413; Liu et al. (2004) Stem Cells Dev. 13, 636-645; Schuldiner et al., (2003) Stem Cells 21, 257-265).

[3] = tested on: Hay1; test: Growth of Hay1 in defined medium after removal of individual peptide hormone factors; conditions: for effect on growth of removal of the factor from the medium: Hay1, defined feeder free medium, factor removed individually
Experimental: The use of feeder layers complicates the use of stem cells for a variety of applications. Use of feeder layers dramatically raise the background in standard in vitro toxicology assays, such as MTT or resazurin reductions confounding the results. Hay1 can be grown routinely under defined conditions. Standard medium consists of KO-DMEM, 15% KO-serum replacement, glutamine, nonessential amino acids, β-MeSH, 10 ng/ml oncostatin M, 10 ng/ml SCF and 25 ng/ml bFGF. Using this medium, Hay1 continues to express the markers listed above and doubles approximately every three to four days. This is slightly slower than their doubling on feeder layers.
Growth of Hay1 was examined under various conditions known to affect stem cell growth and differentiation. Mouse and human EG cells require a source of gp130 signaling for growth in culture (Shamblott et al. (1998); Koshimuzu et al. (1996) Development 122, 1235-1242).
(§1) Since Oct 4 controls Nanog expression (Rodda et al. (2005)), it was expected that induction of Oct 4 would also raise nanog, and this is what was observed.

[4] = tested on: Oct 4 and Nanog; test: Oct 4 and Nanog expression in Hay1 by real time RT-QPCR
Excerpt: While surface markers and alkaline phosphatase are convenient markers for stem cells, it has become clear that expression of the transcription factors Oct 4 and Nanog are fundamental characteristics of stem cells (Rodda et al. (2005) J. Biol. Chem. 280, 24731-24737; Chambers et al. (2003) Cell 113, 643-655). Hay1 was examined for expression of these factors using real time RT-QPCR. […] Biomol. Screen. 5, 249-254), a medium that is a mixture of Weymouth's MAB, Ham's F12 and William's E. It also contains 5% defined calf serum (Hyclone). Actin was used as a standard.
as §1

[5] = Hay1, FGF replaced after withdrawal

For `CC(C)CC[C@@H](O)[C@](C)(O)[C@H]1CC[C@@]2(O)C3=CC(=O)[C@@H]4C[C@@H](O)[C@@H](O)C[C@]4(C)[C@H]3CC[C@]12C` [ponasterone A], the “growth of cells after addition of ponasterone A” value [1] was “stop growing over the next 24 hours and arrest at subconfluent densities”.
With `Cc1c(N)nc([C@H](CC(N)=O)NC[C@H](N)C(N)=O)nc1C(=O)N[C@H](C(=O)N[C@H](C)[C@@H](O)[C@H](C)C(=O)N[C@H](C(=O)NCCC1=N[C@@H](c2nc(C(=O)NCCCCN=C(N)N)cs2)CS1)[C@@H](C)O)[C@@H](O[C@@H]1O[C@@H](CO)[C@@H](O)[C@H](O)[C@@H]1O[C@H]1O[C@H](CO)[C@@H](O)[C@H](OC(N)=O)[C@@H]1O)c1cnc[nH]1` [zeocin] the effective selection concentration ([2]; Hay1, standard titration curve) was 75 µg/mL and the “time until non-resistant cells are dead” value ([2]; Hay1 transfected with pFrt/lac/Zeo, medium containing 75 μg/ml Zeocin) was “about seven”.
human Stem Cell Factor [SCF] was tested, and the “effect on growth of removal of the factor from the medium” value (“effect on growth” below) [3] was “some effect on growth”.
“human basic Fibroblast Growth Factor [FGF]” was tested, and the “Nanog expression after replacement of FGF” value [4, 5] was “raise nanog”, the “Oct 4 expression after replacement of FGF” value [4, 5] was “returned Oct 4 expression to its former level” and the “Oct 4 and Nanog expression after FGF withdrawal” value ([4]; Hay1, FGF withdrawn) was “dramatic reduction in expression”. For the same molecule, the “effect on growth” value [3] was “slight negative effect on growth”, the “effect on growth” value ([3]; listed as bFGF) was “some effect on growth” and the “effect on morphology of removal of the factor” value ([3]; Hay1, defined medium, FGF removed) was “flatter and more spread out on the dish”.
oncostatin M was tested, and the “effect on growth” value [3] was “completely arrested the growth”, the “effect on growth” value ([3]; listed as Onc M) was “some effect on growth” and the “alkaline phosphatase status of cultures after removal of the factor” value ([3]; Hay1, defined medium, factor removed) was “alkaline phosphatase negative within several days”.

From patent US20060068496A1, “Differentiation of stem cells” (priority 2004, published 2006)
